Target: T1, Cathepsin G (Homo sapiens, UniProt P08311)
T1 sequence (P08311 whole entry): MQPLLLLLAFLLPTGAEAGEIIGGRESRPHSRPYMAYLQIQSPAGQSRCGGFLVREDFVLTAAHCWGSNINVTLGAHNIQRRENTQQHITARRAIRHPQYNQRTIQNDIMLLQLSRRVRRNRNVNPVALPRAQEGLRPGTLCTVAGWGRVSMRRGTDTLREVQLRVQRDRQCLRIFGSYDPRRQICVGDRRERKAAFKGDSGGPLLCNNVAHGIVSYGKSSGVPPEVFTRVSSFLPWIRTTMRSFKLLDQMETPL
Assay: IC50 of CTSG protease blockers – biochemical, confirmation, dose response (AID 832)

- IC50: 2670 nM
Structure (SMILES): CC(C)(C)OC(=O)N[C@@H](Cc1ccccc1)c1nnc(S(=O)(=O)Cc2cccc(F)c2)o1 [tert-butyl N-[(1S)-1-[5-[(3-fluorophenyl)methylsulfonyl]-1,3,4-oxadiazol-2-yl]-2-phenylethyl]carbamate]
